Experimental data: the supplement of paper PMC10307832

Legend:
Test in all cases: relative viability (nuclei count vs DMSO), 5 days (fraction); higher = more cells survive
CAL-12T = test system: CAL-12T
In short: (§1)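 Lung cancer cell lines, seeded in 1536-well plates, were treated the following day by pin tool with a single drug or with five library-drug doses (not always all listed) in √10 steps on top of a fixed anchor-drug dose. Cells were fixed and nuclei stained in one step after 5 days, and nuclei were counted. Relative viability is the nuclei count for treated wells divided by that for vehicle wells, reported as medians of duplicate plates.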

EKVX = test system: EKVX
In short: as §1

H3255 = test system: H3255
In short: as §1

HCC-15 = test system: HCC-15
In short: as §1

HCC-827 = test system: HCC-827
In short: as §1

LCLC-97TM1 = test system: LCLC-97TM1
In short: as §1

NCI-H1355 = test system: NCI-H1355
In short: as §1

NCI-H1563 = test system: NCI-H1563
In short: as §1

NCI-H1650 = test system: NCI-H1650
In short: as §1

NCI-H1734 = test system: NCI-H1734
In short: as §1

NCI-H1755 = test system: NCI-H1755
In short: as §1

NCI-H1975 = test system: NCI-H1975
In short: as §1

NCI-H2228 = test system: NCI-H2228
In short: as §1

NCI-H2405 = test system: NCI-H2405
In short: as §1

NCI-H322M = test system: NCI-H322M
In short: as §1

NCI-H520 = test system: NCI-H520
In short: as §1

NCI-H661 = test system: NCI-H661
In short: as §1

PC-14 = test system: PC-14
In short: as §1

PC-3 [JPC-3] = test system: PC-3 [JPC-3]
In short: as §1

RERF-LC-KJ = test system: RERF-LC-KJ
In short: as §1

COc1cc2nccc(Oc3ccc(NC(=O)Nc4cc(C)on4)c(Cl)c3)c2cc1OC [Tivozanib] + CC(C)C[C@H](NC(=O)[C@H](Cc1ccccc1)NC(=O)c1cnccn1)B(O)O [Bortezomib] (partner 0.002 µM)
relative viability (CAL-12T; first compound 0.005 µM): 0.86 | relative viability (CAL-12T; first compound 0.01581 µM): 0.967 | relative viability (CAL-12T; first compound 0.05 µM): 1.14 | relative viability (CAL-12T; first compound 0.5 µM): 1.03 | relative viability (EKVX; first compound 0.005 µM): 0.95 | relative viability (EKVX; first compound 0.01581 µM): 0.924 | relative viability (EKVX; first compound 0.05 µM): 1.11 | relative viability (EKVX; first compound 0.1581 µM): 0.987 | relative viability (EKVX; first compound 0.5 µM): 1.02 | relative viability (H3255; first compound 0.005 µM): 0.739 | relative viability (H3255; first compound 0.01581 µM): 0.823 | relative viability (H3255; first compound 0.05 µM): 0.795 | relative viability (H3255; first compound 0.1581 µM): 0.582 | relative viability (H3255; first compound 0.5 µM): 0.697 | relative viability (HCC-15; first compound 0.005 µM): 0.98 | relative viability (HCC-15; first compound 0.01581 µM): 1.04 | relative viability (HCC-15; first compound 0.05 µM): 1.08 | relative viability (HCC-15; first compound 0.1581 µM): 1.04 | relative viability (HCC-15; first compound 0.5 µM): 1.03 | relative viability (HCC-827; first compound 0.005 µM): 0.981 | relative viability (HCC-827; first compound 0.01581 µM): 1.01 | relative viability (HCC-827; first compound 0.05 µM): 1.13 | relative viability (HCC-827; first compound 0.1581 µM): 1.08 | relative viability (HCC-827; first compound 0.5 µM): 1.03 | relative viability (LCLC-97TM1; first compound 0.005 µM): 0.533 | relative viability (LCLC-97TM1; first compound 0.01581 µM): 0.584 | relative viability (LCLC-97TM1; first compound 0.05 µM): 0.913 | relative viability (LCLC-97TM1; first compound 0.1581 µM): 0.603 | relative viability (LCLC-97TM1; first compound 0.5 µM): 1 | relative viability (NCI-H1355; first compound 0.005 µM): 1.09 | relative viability (NCI-H1355; first compound 0.01581 µM): 1.17 | relative viability (NCI-H1355; first compound 0.05 µM): 1.26 | relative viability (NCI-H1355; first compound 0.5 µM): 1.14 | relative viability (NCI-H1563; first compound 0.005 µM): 0.766 | relative viability (NCI-H1563; first compound 0.01581 µM): 0.964 | relative viability (NCI-H1563; first compound 0.05 µM): 0.896 | relative viability (NCI-H1563; first compound 0.1581 µM): 0.776 | relative viability (NCI-H1563; first compound 0.5 µM): 0.829 | relative viability (NCI-H1650; first compound 0.005 µM): 0.195 | relative viability (NCI-H1650; first compound 0.01581 µM): 0.21 | relative viability (NCI-H1650; first compound 0.05 µM): 0.209 | relative viability (NCI-H1650; first compound 0.1581 µM): 0.264 | relative viability (NCI-H1650; first compound 0.5 µM): 0.196 | relative viability (NCI-H1734; first compound 0.005 µM): 0.757 | relative viability (NCI-H1734; first compound 0.01581 µM): 0.904 | relative viability (NCI-H1734; first compound 0.05 µM): 1.01 | relative viability (NCI-H1734; first compound 0.1581 µM): 0.677 | relative viability (NCI-H1734; first compound 0.5 µM): 0.854 | relative viability (NCI-H1755; first compound 0.005 µM): 0.911 | relative viability (NCI-H1755; first compound 0.01581 µM): 0.935 | relative viability (NCI-H1755; first compound 0.05 µM): 1.01 | relative viability (NCI-H1755; first compound 0.1581 µM): 0.577 | relative viability (NCI-H1755; first compound 0.5 µM): 0.86 | relative viability (NCI-H1975; first compound 0.005 µM): 0.376 | relative viability (NCI-H1975; first compound 0.01581 µM): 0.418 | relative viability (NCI-H1975; first compound 0.05 µM): 0.361 | relative viability (NCI-H1975; first compound 0.1581 µM): 0.363 | relative viability (NCI-H1975; first compound 0.5 µM): 0.257 | relative viability (NCI-H2228; first compound 0.005 µM): 0.86 | relative viability (NCI-H2228; first compound 0.01581 µM): 0.859 | relative viability (NCI-H2228; first compound 0.05 µM): 1.02 | relative viability (NCI-H2228; first compound 0.1581 µM): 0.887 | relative viability (NCI-H2228; first compound 0.5 µM): 0.972 | relative viability (NCI-H2405; first compound 0.005 µM): 0.87 | relative viability (NCI-H2405; first compound 0.01581 µM): 1.01 | relative viability (NCI-H2405; first compound 0.05 µM): 1.05 | relative viability (NCI-H2405; first compound 0.1581 µM): 1.02 | relative viability (NCI-H2405; first compound 0.5 µM): 0.886 | relative viability (NCI-H322M; first compound 0.005 µM): 1.24 | relative viability (NCI-H322M; first compound 0.01581 µM): 1.21 | relative viability (NCI-H322M; first compound 0.05 µM): 1.18 | relative viability (NCI-H322M; first compound 0.1581 µM): 1.05 | relative viability (NCI-H322M; first compound 0.5 µM): 1.28 | relative viability (NCI-H520; first compound 0.005 µM): 0.575 | relative viability (NCI-H520; first compound 0.01581 µM): 0.693 | relative viability (NCI-H520; first compound 0.05 µM): 0.645 | relative viability (NCI-H520; first compound 0.1581 µM): 0.519 | relative viability (NCI-H520; first compound 0.5 µM): 0.605 | relative viability (NCI-H661; first compound 0.005 µM): 0.682 | relative viability (NCI-H661; first compound 0.01581 µM): 0.818 | relative viability (NCI-H661; first compound 0.05 µM): 0.753 | relative viability (NCI-H661; first compound 0.1581 µM): 0.717 | relative viability (NCI-H661; first compound 0.5 µM): 0.85 | relative viability (PC-14; first compound 0.005 µM): 0.821 | relative viability (PC-14; first compound 0.01581 µM): 0.847 | relative viability (PC-14; first compound 0.05 µM): 0.99 | relative viability (PC-14; first compound 0.1581 µM): 0.811 | relative viability (PC-14; first compound 0.5 µM): 0.812 | relative viability (PC-3 [JPC-3]; first compound 0.005 µM): 0.82 | relative viability (PC-3 [JPC-3]; first compound 0.01581 µM): 0.855 | relative viability (PC-3 [JPC-3]; first compound 0.05 µM): 0.847 | relative viability (PC-3 [JPC-3]; first compound 0.1581 µM): 0.835 | relative viability (PC-3 [JPC-3]; first compound 0.5 µM): 0.794 | relative viability (RERF-LC-KJ; first compound 0.005 µM): 1.11 | relative viability (RERF-LC-KJ; first compound 0.01581 µM): 1.06 | relative viability (RERF-LC-KJ; first compound 0.05 µM): 1.11 | relative viability (RERF-LC-KJ; first compound 0.1581 µM): 0.83 | relative viability (RERF-LC-KJ; first compound 0.5 µM): 1.03
